# Data as given in patent publication US20200209181A1, “ELECTROCHEMICAL METHOD AND DEVICE FOR DETECTING THE EFFECT OF ANTICANCER DRUGS” (Nano Hesgarsazan Salamat Arya, priority 2016, published 2020).
# Experiments:
# Format in all cases: cell-based, human
# [1] = system: MCF-7 cells; assay: Cyclic voltammetry (CV) response of MCF-7 cells attached on SiNW-based biosensor after drug treatment
# Excerpt: For CV characterization, three-electrode electrochemical cyclic voltammetry may be performed using the electrochemical workstation. Instead of the system electrodes, the SiNW-based biosensor including integrated SiNW electrodes may be used that is designed and fabricated pursuant to the teachings of the present disclosure. CV assay may be performed between the integrated SiNW covered working electrode 103 and counter electrode 104, with an on chip reference electrode 105 (represented in FIGS. 1 and 5A). The reference electrode may be initially calibrated by an Ag/AgCl reference electrode in a solution of about 1 mM ferrocene carboxylic acid with about 1 mM potassium chloride. CV studies may be performed using DC voltage and applying no AC frequency. For CV data recording, measurements may be carried out at about −0.8 V to 0.8 V at a scan rate of about 100 mv/s. In this example, the effect of Mebendazole (MBZ), which is an antitubulin drug that induces tubulin depolymerization in cancer cells, may be investigated via an exemplary electrochemical method of the present disclosure. The MCF-7 cells attached on SiNWs of an exemplary biosensor of the present disclosure may be treated with different doses of MBZ and the electrochemical response of an individual non-treated (hereinafter “CTRL”) cell and treated cells may be monitored. […]
# [2] = system: MCF-7 cells; assay: Differential pulse voltammetry (DPV) response of MCF-7 cells attached on SiNW-based biosensor after drug treatment; settings: for Absolute DPV current peak: about 2 nano-mole per liter MBZ; for Absolute DPV: about 10.5 nano-mole per liter MBZ
# Excerpt: For DPV measurement, a derivative of linear sweep voltammetry, with a series of regular voltage pulses superimposed on the potential linear sweep. The current may be sampled twice, just before the pulse application and again, late in the pulse lifetime. The current may be measured immediately before each potential change, then the current difference may be plotted as a function of potential. By sampling the current just before the potential was changed, the effect of the charging current may be decreased. In this example, the effect of Mebendazole (MBZ), which is an antitubulin drug that induces tubulin depolymerization in cancer cells, may be investigated via an exemplary electrochemical method of the present disclosure. The MCF-7 cells attached on SiNWs of an exemplary biosensor of the present disclosure may be treated with different doses of MBZ and the electrochemical response of an individual non-treated (hereinafter “CTRL”) cell and treated cells may be monitored. Accordingly, exemplary MCF-7 cell lines isolated from grade I human breast tumors may be used as cancer cells. The MCF-7 cells may be maintained in a CO2 incubator containing about 5% CO2 and at a temperature of about 37° C. in a RPMI-1640 medium supplemented with a 5% fetal bovine serum, and 1% penicillin/streptomycin. The fresh medium may be replaced every other day. Prior to each experiment, cells may be trypsinized to be detached from the substrate and re-suspended on the SiNW electrodes of an exemplary biosensor of the present disclosure. To minimize the effect of trypsinization, the procedure may be done in less than about 4 minutes at a room temperature of about 20° C. to about 22° C. The biosensor including the attached cells may be held in an incubator for about 4 hours to achieve cells attachment on the SiNWs. Then the MBZ drug with a low concentration (about 2 nano-mole per liter) and with a high concentration (about 10.5 nano-mole per liter) may be added to the cells. […]
# [3] = system: MCF-7 cells; assay: Cell cycle progression of drug treated MCF-7 cells by flowcytometry analysis
# Method: Accordingly, exemplary MCF-7 cell lines isolated from grade I human breast tumors may be used as cancer cells. The MCF-7 cells may be maintained in a CO2 incubator containing about 5% CO2 and at a temperature of about 37° C. in a RPMI-1640 medium supplemented with a 5% fetal bovine serum, and 1% penicillin/streptomycin. The fresh medium may be replaced every other day. Prior to each experiment, cells may be trypsinized to be detached from the substrate and re-suspended on the SiNW electrodes of an exemplary biosensor of the present disclosure. To minimize the effect of trypsinization, the procedure may be done in less than about 4 minutes at a room temperature of about 20° C. to about 22° C. The biosensor including the attached cells may be held in an incubator for about 4 hours to achieve cells attachment on the SiNWs. Then the MBZ drug with a low concentration (about 2 nano-mole per liter) and with a high concentration (about 10.5 nano-mole per liter) may be added to the cells. The signal recording and biological assays may be investigated at about 2, 6 and 10 hours after addition of the drug. In addition, cell cycle progression for CTRL and drug treated MCF-7 cells may be determined by flowcytometry analysis that are shown in FIG. 9A (for CTRL cells), FIG. 9B (for treated cells with about 2 nano-mole per liter of MBZ) and FIG. 9C (for treated cells with about 10.5 nano-mole per liter of MBZ). The cell's fractions in apoptotic (part 901), G0/G1 (part 902), S (part 903) and G2/M (part 904) cycles are observable in all of panels. Also, the state of counted cells for each of these three situations is represented at the Right side of the figures. […] But, proportion of G0/G1 fraction (part 902) was changed in MBZ incubated samples. The peak of G0/G1 was about 1300 in CTRL sample (FIG. 9A) meanwhile it was reduced to about 800 in MBZ (about 2 nano-mole per liter) treated cells (FIG. 9B). The result can be confirmed by side scatter versus forward scatter (SSC-FSC) diagram as a strong sign of cells granularity (represented at Right side of FIGS. 9A, 9B and 9C). […] By increasing the dose of MBZ to about 10.5 nM (FIG. 9C), apoptotic behavior (part 901) of the cells was affected. […] Such disorders in the cycle of the cells after MBZ treatment would be well demanded by affected anodic/cathodic response of the cells measured by SiNWs electrodes.
# [4] = about 2 nano-mole per liter MBZ
smiles,measurement,setting,value
"COC(=O)Nc1nc2ccc(C(=O)c3ccccc3)cc2[nH]1 [MBZ, Mebendazole]",anodic and cathodic spikes in CV diagrams,"[1]; MBZ about 2 and about 10.5 nano-mole per liter, 2 hours after drug incubation, MCF-7 on SiNW electrodes",Both anodic and cathodic spikes may be observed
same,height of the CV spikes,"[1]; MBZ dose increased to about 10.5 nano-mole per liter, versus about 2 nano-mole per liter",increased by nearly three orders
same,Absolute DPV current peak,[2]; 2 hours after treatment (CTRL about 5 nA),about 300 nA
same,Absolute DPV current peak,[2]; about 12 hours after treatment,about 900 nA
same,Absolute DPV,[2]; 12 hours,about 2000 nA
same,Absolute DPV,[2]; after 2 hours,about 1400
same,amount of the cells in G0/G1 phase,"[3]; about 10.5 nM MBZ, similar time",sharper reduction
same,G2/M fraction relative to CTRL,[3]; [4],less than half
same,apoptotic behavior of MCF-7 cells,[3]; [4],did not induce the apoptotic behavior
same,peak of G0/G1,[3]; about 2 nano-mole per liter MBZ (CTRL about 1300),about 800
same,apoptotic cells with hypodiploid DNA (subG1 fraction),"[3]; about 2 nano-mole per liter MBZ, compared with CTRL sample",slightly increased
